Results published in patent US20260226068A1, “IMIDAZOTRIAZINE IL-17A MODULATORS AND USES THEREOF” (DICE ALPHA, INC., priority 2023, published 2026).

Experiments:
IL-17A/A = molecular target: T1, IL-17A/A (Homo sapiens, UniProt Q16552); test: IL-17A/A HEK-Blue cell assay (SEAP reporter); format: cell-based; conditions: HEK-Blue IL-17A reporter cells, IL17A/A 5 ng/mL, 20 hours, SEAP read at A630; read-out: HEK-Blue IL17AA (IC50 for IL-17A/A inhibition)
T1 construct: purchased Genscript Z03228
T1 sequence (Q16552 24-155): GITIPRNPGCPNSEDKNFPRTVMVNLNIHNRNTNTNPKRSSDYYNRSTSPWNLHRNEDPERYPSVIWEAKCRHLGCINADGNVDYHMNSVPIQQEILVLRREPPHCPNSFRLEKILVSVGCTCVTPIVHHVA

IL-17A/F = molecular target: T2, IL-17A/F (Homo sapiens, UniProt Q16552+Q96PD4); test: IL-17A/F HEK-Blue cell assay (SEAP reporter); format: cell-based; conditions: HEK-Blue IL-17A reporter cells, IL17A/F 5 ng/mL, 20 hours, SEAP read at A630; read-out: HEK-Blue IL17AF (IC50 for IL-17A/F inhibition)
T2 construct: purchased R&D Systems
T2 sequence (Q16552 24-155): T1 sequence (Q16552 24-155)
T2 sequence (Q96PD4 31-163): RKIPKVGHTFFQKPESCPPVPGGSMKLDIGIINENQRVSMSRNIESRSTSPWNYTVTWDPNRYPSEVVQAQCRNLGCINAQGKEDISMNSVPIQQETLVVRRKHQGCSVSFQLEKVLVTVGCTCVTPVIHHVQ

| Structure (SMILES) | IC50 (IL-17A/A) [nM] | IC50 (IL-17A/F) [nM] |
| --- | --- | --- |
| Cc1nocc1C(=O)N[C@H](c1cn2nc(C[C@H]3C[C@@H](C(F)(F)F)CNC3=O)c(C3CCOCC3)nc2n1)C1CCC(F)(F)CC1 [Compound 189, N-((1S)-(4,4-difluorocyclohexyl)(2-(((3R,5R)-2-oxo-5-(trifluoromethyl)piperidin-3-yl)methyl)-3-(tetrahydro-2H-pyran-4-yl)imidazo[1,2-b][1,2,4]triazin-6-yl)methyl)-3-methylisoxazole-4-carboxamide] | < 100 | 100 to 1000 |
| O=C(N[C@H](c1cn2nc(C[C@H]3C[C@@H](C(F)(F)F)CNC3=O)c(C3CCOCC3)nc2n1)C1CCC(F)(F)CC1)c1nonc1C(F)F [Compound 190, N-((1S)-(4,4-difluorocyclohexyl)(2-(((3R,5R)-2-oxo-5-(trifluoromethyl)piperidin-3-yl)methyl)-3-(tetrahydro-2H-pyran-4-yl)imidazo[1,2-b][1,2,4]triazin-6-yl)methyl)-4-(difluoromethyl)-1,2,5-oxadiazole-3-carboxamide] | < 100 | > 1000 |
| O=C(N[C@H](c1cn2nc(C[C@H]3C[C@@H](C(F)(F)F)CNC3=O)c(C3CCOCC3)nc2n1)C1CCC(F)(F)CC1)c1conc1C(F)(F)F [Compound 191, N-((1S)-(4,4-difluorocyclohexyl)(2-(((3R,5R)-2-oxo-5-(trifluoromethyl)piperidin-3-yl)methyl)-3-(tetrahydro-2H-pyran-4-yl)imidazo[1,2-b][1,2,4]triazin-6-yl)methyl)-3-(trifluoromethyl)isoxazole-4-carboxamide] | < 100 | 100 to 1000 |
| CCn1nccc1C(=O)N[C@H](c1cn2nc(C[C@H]3C[C@@H](C(F)(F)F)CNC3=O)c(N3CCC(F)(F)CC3)nc2n1)C1CCC(F)(F)CC1 [Compound 192, N—((S)-(4,4-difluorocyclohexyl)(3-(4,4-difluoropiperidin-1-yl)-2-(((3R,5R)-2-oxo-5-(trifluoromethyl)piperidin-3-yl)methyl)imidazo[1,2-b][1,2,4]triazin-6-yl)methyl)-1-ethyl-1H-pyrazole-5-carboxamide] | < 100 | 100 to 1000 |
| CCn1nccc1C(=O)N[C@H](c1cn2nc(C[C@H]3C[C@@H](C(F)(F)F)CNC3=O)c(N3CC4(CCOC4)C3)nc2n1)C1CCC(F)(F)CC1 [Compound 193, N—((S)-(4,4-difluorocyclohexyl)(2-(((3R,5R)-2-oxo-5-(trifluoromethyl)piperidin-3-yl)methyl)-3-(6-oxa-2-azaspiro[3.4]octan-2-yl)imidazo[1,2-b][1,2,4]triazin-6-yl)methyl)-1-ethyl-1H-pyrazole-5-carboxamide] | < 100 | 100 to 1000 |
| CCn1nccc1C(=O)N[C@H](c1cn2nc(C[C@H]3C[C@@H](C(F)(F)F)CNC3=O)c(N3CCC(C)(O)CC3)nc2n1)C1CCC(F)(F)CC1 [Compound 194, N—((S)-(4,4-difluorocyclohexyl)(3-(4-hydroxy-4-methylpiperidin-1-yl)-2-(((3R,5R)-2-oxo-5-(trifluoromethyl)piperidin-3-yl)methyl)imidazo[1,2-b][1,2,4]triazin-6-yl)methyl)-1-ethyl-1H-pyrazole-5-carboxamide] | < 100 | 100 to 1000 |
| CCn1nccc1C(=O)N[C@H](c1cn2nc(C[C@H]3C[C@@H](C(F)(F)F)CNC3=O)c(N(C)CC3(C)COC3)nc2n1)C1CCC(F)(F)CC1 [Compound 195, N—((S)-(4,4-difluorocyclohexyl)(3-(methyl((3-methyloxetan-3-yl)methyl)amino)-2-(((3R,5R)-2-oxo-5-(trifluoromethyl)piperidin-3-yl)methyl)imidazo[1,2-b][1,2,4]triazin-6-yl)methyl)-1-ethyl-1H-pyrazole-5-carboxamide] | 100 to 1000 | > 1000 |
| CCn1nccc1C(=O)N[C@H](c1cn2nc(C[C@H]3C[C@@H](C(F)(F)F)CNC3=O)c(C3CCOCC3)nc2n1)C1CCCCC1 [Compound 196, N-((1S)-cyclohexyl(2-(((3R,5R)-2-oxo-5-(trifluoromethyl)piperidin-3-yl)methyl)-3-(tetrahydro-2H-pyran-4-yl)imidazo[1,2-b][1,2,4]triazin-6-yl)methyl)-1-ethyl-1H-pyrazole-5-carboxamide] | < 100 | < 100 |
| CCn1nccc1C(=O)N[C@H](c1cn2nc(C[C@H]3C[C@@H](C(F)(F)F)CNC3=O)c(C3CCOCC3)nc2n1)C1CC2(C1)CC(F)(F)C2 [Compound 197] | < 100 | > 1000 |
| CCn1nccc1C(=O)N[C@@H](c1cn2nc(C[C@H]3C[C@@H](C(F)(F)F)CNC3=O)c(C3CCOCC3)nc2n1)C1CC2CC2C1 (stereo partly shown) [Compound 198] | < 100 | 100 to 1000 |
| CCn1nccc1C(=O)N[C@H](c1cn2nc(C[C@H]3C[C@@H](C(F)(F)F)CNC3=O)c(N3CCN(C)[C@@H](C)C3)nc2n1)C1CCC(F)(F)CC1 [Compound 200] | < 100 | 100 to 1000 |
| CCn1nccc1C(=O)N[C@H](c1cn2nc(C[C@H]3C[C@@H](C(F)(F)F)CNC3=O)c(N[C@H]3CC[C@@H](OC)CC3)nc2n1)C1CCC(F)(F)CC1 [Compound 201] | < 100 | 100 to 1000 |
| CCn1nccc1C(=O)N[C@H](c1cn2nc(C[C@H]3C[C@@H](C(F)(F)F)CNC3=O)c(C(C)C)nc2n1)[C@H]1CCCC(F)(F)C1 [Compound 205, N-((1S)—((S)-3,3-difluorocyclohexyl)(3-isopropyl-2-(((3R,5R)-2-oxo-5-(trifluoromethyl)piperidin-3-yl)methyl)imidazo[1,2-b][1,2,4]triazin-6-yl)methyl)-1-ethyl-1H-pyrazole-5-carboxamide] | < 100 | < 100 |
| CCn1nccc1C(=O)N[C@H](c1cn2nc(C[C@H]3C[C@@H](C(F)(F)F)CNC3=O)c(C(C)C)nc2n1)[C@@H]1CCCC(F)(F)C1 [Compound 206, N-((1S)—((R)-3,3-difluorocyclohexyl)(3-isopropyl-2-(((3R,5R)-2-oxo-5-(trifluoromethyl)piperidin-3-yl)methyl)imidazo[1,2-b][1,2,4]triazin-6-yl)methyl)-1-ethyl-1H-pyrazole-5-carboxamide] | < 100 | 100 to 1000 |
| CC(C)n1nccc1C(=O)N[C@H](c1cn2nc(C[C@H]3C[C@@H](C(F)(F)F)CNC3=O)c(C3CCOCC3)nc2n1)[C@H]1CCCC(F)(F)C1 [Compound 211, N-((1S)—((S)-3,3-difluorocyclohexyl)(2-(((3R,5R)-2-oxo-5-(trifluoromethyl)piperidin-3-yl)methyl)-3-(tetrahydro-2H-pyran-4-yl)imidazo[1,2-b][1,2,4]triazin-6-yl)methyl)-1-isopropyl-1H-pyrazole-5-carboxamide] | < 100 | < 100 |
| CCn1nccc1C(=O)N[C@H](c1cn2nc(C[C@H]3C[C@@H](C(F)(F)F)CNC3=O)c(C3(F)CCOCC3)nc2n1)C1CCC(F)(F)CC1 [Compound 212, N-((1S)-(4,4-difluorocyclohexyl)(3-(4-fluorotetrahydro-2H-pyran-4-yl)-2-(((3R,5R)-2-oxo-5-(trifluoromethyl)piperidin-3-yl)methyl)imidazo[1,2-b][1,2,4]triazin-6-yl)methyl)-1-ethyl-1H-pyrazole-5-carboxamide] | < 100 | 100 to 1000 |
| CCn1nccc1C(=O)N[C@H](c1cn2nc(C[C@H]3C[C@@H](C(F)(F)F)CNC3=O)c(CC3CCCOC3)nc2n1)C1CCC(F)(F)CC1 (stereo partly drawn) [Compound 213, N-((1S)-(4,4-difluorocyclohexyl)(2-(((3R,5R)-2-oxo-5-(trifluoromethyl)piperidin-3-yl)methyl)-3-((tetrahydro-2H-pyran-3-yl)methyl)imidazo[1,2-b][1,2,4]triazin-6-yl)methyl)-1-ethyl-1H-pyrazole-5-carboxamide] | < 100 | 100 to 1000 |
| CCn1nccc1C(=O)N[C@H](c1cn2nc(C[C@H]3C[C@@H](C(F)(F)F)CNC3=O)c(C(C)C(F)(F)F)nc2n1)C1CCC(F)(F)CC1 (stereo partly drawn) [Compound 214, N-((1S)-(4,4-difluorocyclohexyl)(2-(((3R,5R)-2-oxo-5-(trifluoromethyl)piperidin-3-yl)methyl)-3-(1,1,1-trifluoropropan-2-yl)imidazo[1,2-b][1,2,4]triazin-6-yl)methyl)-1-ethyl-1H-pyrazole-5-carboxamide] | < 100 | 100 to 1000 |
| C=CCCc1nc2nc([C@@H](NC(=O)c3ccnn3CC)C3CCC(F)(F)CC3)cn2nc1C[C@H]1C[C@@H](C(F)(F)F)CNC1=O [Compound 215, N-((1S)-(3-(but-3-en-1-yl)-2-(((3R,5R)-2-oxo-5-(trifluoromethyl)piperidin-3-yl)methyl)imidazo[1,2-b][1,2,4]triazin-6-yl)(4,4-difluorocyclohexyl)methyl)-1-ethyl-1H-pyrazole-5-carboxamide] | < 100 | 100 to 1000 |
| CCn1nccc1C(=O)N[C@H](c1cn2nc(C[C@H]3C[C@@H](C(F)(F)F)CNC3=O)c(C(C)(C)F)nc2n1)C1CCC(F)(F)CC1 [Compound 216, N-((1S)-(4,4-difluorocyclohexyl)(3-(2-fluoropropan-2-yl)-2-(((3R,5R)-2-oxo-5-(trifluoromethyl)piperidin-3-yl)methyl)imidazo[1,2-b][1,2,4]triazin-6-yl)methyl)-1-ethyl-1H-pyrazole-5-carboxamide] | < 100 | 100 to 1000 |
